Test results: ChEMBL document CHEMBL1201862, “PubChem BioAssay data set” (2004)
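96-well plates; 48 h exposure; 5 concentrations. Endpoints by linear interpolation between flanking doses. Not reached: highest tested concentration assigned. The concentration for 50% growth inhibition is given as GI50.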 The source made the active and inactive calls. Cut-off read from the data, not from the text of the source: active = GI50 up to about 1.1 µM and inactive = higher.

Columns and labels:
Assay in all cases: DTP human tumour cell line panel, 48 h
OVCAR-3 = tested on: OVCAR-3
K562 = tested on: K562
T47D = tested on: T47D
A498 = tested on: A498
MDA-MB-231 = tested on: MDA-MB-231
SF-268 = tested on: SF-268
786-0 = tested on: 786-0
NCI-H522 = tested on: NCI-H522
NCI-H226 = tested on: NCI-H226
NCI-H460 = tested on: NCI-H460
CCRF-CEM = tested on: CCRF-CEM
KM12 = tested on: KM12
EKVX = tested on: EKVX
MDA-MB-435 = tested on: MDA-MB-435
IGROV-1 = tested on: IGROV-1
SN12C = tested on: SN12C
OVCAR-5 = tested on: OVCAR-5
RPMI-8226 = tested on: RPMI-8226
PC-3 = tested on: PC-3

Measured: GI50

CCCCn1c(-c2ccc([N+](=O)[O-])cc2)cs/c1=N/N=C1\C(=O)Nc2ccc(Br)cc21
inactive: OVCAR-3 15.5 µM | K562 15.7 µM | T47D 7.11 µM | A498 17.4 µM | MDA-MB-231 15.7 µM | SF-268 29.9 µM | 786-0 11.8 µM | NCI-H522 14.2 µM | NCI-H226 21.1 µM | NCI-H460 14.6 µM | CCRF-CEM 17.8 µM | KM12 14.6 µM | EKVX 24.7 µM | MDA-MB-435 14.1 µM | IGROV-1 19.1 µM | SN12C 3.78 µM | OVCAR-5 30.5 µM

CSc1ccc(-c2cc(-c3nc4ccccc4[nH]3)nc3[nH]c(-c4nc5ccccc5[nH]4)cc(=O)c23)cc1
inactive: OVCAR-3 > 100 µM | K562 42 µM | T47D 95.1 µM | RPMI-8226 41.9 µM | SF-268 49.2 µM | 786-0 > 100 µM | NCI-H522 > 100 µM | NCI-H226 84.5 µM | NCI-H460 52.1 µM | CCRF-CEM 73.6 µM | KM12 60.3 µM | EKVX 27.1 µM | MDA-MB-435 41.1 µM | IGROV-1 > 100 µM | SN12C 71.1 µM | PC-3 > 100 µM | OVCAR-5 > 100 µM

CS(=O)(=O)c1nc(-c2cc3c(c(S(C)(=O)=O)n2)CCC3)cc2c1CCCCC2
inactive: OVCAR-3 > 100 µM | K562 > 100 µM | RPMI-8226 > 100 µM | MDA-MB-231 54.7 µM | SF-268 14.8 µM | 786-0 70.8 µM | NCI-H522 15.2 µM | NCI-H226 56.6 µM | CCRF-CEM > 100 µM | KM12 > 100 µM | EKVX > 100 µM | MDA-MB-435 > 100 µM | IGROV-1 20.1 µM | SN12C > 100 µM | PC-3 > 100 µM | OVCAR-5 > 100 µM

CN(CC(=O)O)c1ncc2c(n1)-c1ccccc1SC2
inactive: RPMI-8226 > 100 µM | A498 > 100 µM | MDA-MB-231 > 100 µM | SF-268 > 100 µM | 786-0 > 100 µM | NCI-H522 > 100 µM | NCI-H460 > 100 µM | CCRF-CEM > 100 µM | KM12 > 100 µM | EKVX > 100 µM | MDA-MB-435 > 100 µM | IGROV-1 > 100 µM | SN12C > 100 µM | PC-3 > 100 µM | OVCAR-5 > 100 µM

COc1ccc(/C(Cl)=C(\CN(C)C)c2ccc(OC)c(OC)c2)cc1OC.[B]
inactive: K562 > 100 µM | RPMI-8226 > 100 µM | A498 33.9 µM | SF-268 > 100 µM | 786-0 15.9 µM | NCI-H226 > 100 µM | NCI-H460 > 100 µM | CCRF-CEM > 100 µM | KM12 > 100 µM | EKVX > 100 µM | IGROV-1 > 100 µM | SN12C > 100 µM | OVCAR-5 > 100 µM

C=C1C(O)CC[C@]2(C)C1C1OC(C)(C)O[C@]13CC(=O)C(C)=C([C@H]1OC(C)(C)OC12)C3(C)C (stereo partly specified)
inactive: OVCAR-3 > 100 µM | K562 90.2 µM | T47D 47.9 µM | RPMI-8226 96.8 µM | A498 23.1 µM | MDA-MB-231 > 100 µM | SF-268 > 100 µM | 786-0 > 100 µM | NCI-H226 > 100 µM | NCI-H460 > 100 µM | CCRF-CEM > 100 µM | KM12 > 100 µM | EKVX > 100 µM | MDA-MB-435 > 100 µM | IGROV-1 > 100 µM | SN12C > 100 µM | OVCAR-5 > 100 µM

O=C1/C(=C/c2cccc([N+](=O)[O-])c2)CCCc2ccccc21
inactive: OVCAR-3 13.6 µM | K562 3.27 µM | RPMI-8226 11.4 µM | MDA-MB-231 17 µM | SF-268 4.82 µM | 786-0 13.7 µM | NCI-H522 4.74 µM | NCI-H226 16.2 µM | NCI-H460 18.5 µM | CCRF-CEM 2.93 µM | KM12 2.42 µM | EKVX 16 µM | MDA-MB-435 9.66 µM | IGROV-1 11 µM | SN12C 17.3 µM | PC-3 11 µM | OVCAR-5 13.3 µM

Oc1cc(-c2ccc(F)cc2)nc2ncccc12
inactive: K562 22.2 µM | T47D 48.1 µM | RPMI-8226 37.1 µM | A498 87.3 µM | MDA-MB-231 > 100 µM | SF-268 62.1 µM | NCI-H522 35.4 µM | NCI-H226 24.3 µM | CCRF-CEM 36.2 µM | KM12 31.9 µM | EKVX 39.4 µM | IGROV-1 67.5 µM | SN12C > 100 µM | OVCAR-5 98.9 µM
